Experimental data: patent US11805798B2, “Process for increasing the stability of a composition comprising polyunsaturated omega-3 fatty acids” (Evonik Operations GmbH, priority 2014, dated 2023)
Values joined by “and” are separate entries in the source; they are usually repeats but may differ in a detail not shown here. Equal values may be shown once.

Key:
Assay type in all cases: physicochemical
[1] = Peroxide Value (PV), primary oxidation products, Ph. Eur. 2.5.5; stability on storage
Description: An exemplary procedure for determining the Peroxide Value (PV) of a sample is performed as follows:
Reagents and solution: • 1. Acetic Acid—chloroform solution (7.2 ml Acetic Acid and 4.8 ml Chloroform). • 2. Saturated Potassium Iodide solution. Store in the dark. • 3. Sodium thiosulfate solution, 0.1N. Commercially available • 4. 1% Starch solution. Commercially available. • 5. Distilled or deionized water.
Conduct a blank determination of the reagents • 1. Weigh 2.00 (±0.02) g of sample into a 100 ml glass stoppered Erlenmeyer flask. Record weight to the nearest 0.01 g. • 2. By graduated cylinder, odd 12 ml of the acetic acid chloroform solution. • 3. Swirl the flask until the sample is completely dissolved (careful warming on a hot plate may be necessary). • 4. Using 1 ml Mohr pipette, add 0.2 ml of saturated potassium iodide solution • 5. Stopper the flask and swirl the contents of the flask for exactly one minute. • 6. Immediately add by graduated cylinder, 12 ml of either distilled or deionized water, stopper and stake vigorously to liberate the iodine from the chloroform layer. • 7. Fill the burette with 0.1 N sodium thiosulfate. • 8. If the starting color of the solution is deep red orange, titrate slowly with mixing until the color lightens. If the solution is initially a light amber color, go to step 9. • 9. Using a dispensing device: add 1 ml of starch solution as indicator. • 10. Titrate until the blue gray color disappears in the aqueous (upper layer). • 11. Accurately record the mis of titrant used to two decimal places.
Calculation: • S=titration of sample • B=titration of blank • Peroxide value=(S−B)*N thiosulfate*1000/weight of sample
(§1) Primary oxidation products (hydroperoxides at double bonds) were quantified by determining the Peroxide Value (PV) according to Ph. Eur 2.5.5 (01/2008.20505). Secondary oxidation products (carbonyl compounds) were quantified by determining the Anisidine Value (AV) according to Ph, Eur. 2.5.36 (01/2008:20536).
(§2) About 50 g each of the liquid ethyl esters EPA-OEt and DHA-OEt used in experiments 1 and 2 as well as of the liquid fatty acids EPA and DHA obtained in experiments 1 and 2 were filled into 250 ml Schott Duran bottles with an inner diameter of about 60 mm (filling height about 20 mm). About 50 g each of the solid lysine-salts EPA-Lys and DHA-Lys obtained in experiments 3 and 4 were filled into 250 ml polyethylene wide-neck bottles (55 mm*55 mm*80 mm) (filling height about 60 mm-70 mm).
(§3) All of the bottles were placed together with opened lids in a drying oven with an opened ventilation valve at 50° C. and stored under these conditions for 26 days. Results of the analyses performed subsequently as well as the results obtained for the sodium-salts which were stored at room temperature (cf. experiments 5 and 6) are summarized in the following table (Table 1).

[2] = Anisidine Value (AV), secondary oxidation products, Ph. Eur. 2.5.36; stability on storage
Description: An exemplary procedure for determining the Anisidine Value (AV) of a sample is performed as follows
The anisidine value is defined as 100 times the optical density measured in a 1 cm cell of a solution containing 1 g of the substance to be examined in 100 ml of a mixture of solvents and reagents according to the following method carry out the operations as rapidly as possible avoiding exposure to actinic light.
Test solution (a); Dissolve 0.500 g of the substance to be examined in trimethylpentane and dilute to 25.0 ml with the same solvent.
Test solution (b): To 5.0 ml of test solution (a) add 1.0 ml of a 2.5 g/t solution of p-anisidine in glacial acetic acid, shake and store protected from light.
Reference solution: To 5.0 ml of trimethylpentane add 1.0 ml of a 2.5 g/l solution of p-anisidine in glacial acetic acid, shake and store protected from light. Measure the absorbance of test solution (a) at the maximum at 350 nm using trimethylpentane as the compensation liquid. Measure the absorbance of test solution (b) at 350 nm exactly 10 min after its preparation, using the reference solution as the compensation liquid. Calculate the anisidine value (AV) from the expression. AV=(25*(1.2*A1−A2)/m • A1=absorbance of test solution (b) at 350 nm, • A2=absorbance of test solution (a) at 350 nm, • m=mass of the substance to be examined in test solution (a), in grams.
as §1, §2, §3

[3] = Oligomer content by gel-chromatography (GPC), RI-detector; stability on storage
Description: Oligomeric PUFA constituents as well as their derivatives (collectively referred to as oligomer content) were quantified by gel-chromatographic means (GPC, styroldivinylbenzene-phase with tetrahydrofuran containing trifluoroacetic acid used as eluent). A refractive index (RI) detector was used for detection. Due to the fact that specific response factors of the constituents of the samples wore unknown, proportions were calculated based upon fractional proportions of the total area of chromatograms.
as §2, §3

[4] = Appearance after storage at room temperature; settings: after storage for 3 months at room temperature; initially faintly beige powder
Description: The homogenous solution obtained was spray dried with a Büchi B190 laboratory-spray drier with an inlet temperature of 140° C. and an outlet temperature of about 80° C. 28.6 g of a faintly beige powder were obtained.
The homogenous solution obtained was spray dried with a Büchi B190 laboratory-spray drier writ an inlet temperature of 140° C. and an outlet temperature of about 80° C. 27.5 g of a faintly beige powder were obtained. […] Oligomer content was determined as 3.4 area-% (gel-chromatography. RI-detector).

[5] = t = 26 days, open bottles exposed to air, drying oven at 50° C.
[6] = after 3 months at room temperature

| Oligomer content ([3]; t = 0, before storage) [area-%] | Compound | Peroxide Value (PV) ([1]; t = 0, before storage) [mmol/kg] | Peroxide Value (PV) [1, 5] [mmol/kg] | Anisidine Value (AV) ([2]; t = 0, before storage) [A/g] | Anisidine Value (AV) [2, 5] [A/g] | Oligomer content [3, 5] [area-%] | Peroxide Value (PV) [1, 6] | Appearance after storage [4] | Anisidine Value (AV) [2, 6] | Oligomer content [3, 6] |
| --- | --- | --- | --- | --- | --- | --- | --- | --- | --- | --- |
| 0.4 | CC/C=C\C/C=C\C/C=C\C/C=C\C/C=C\C/C=C\CCC(=O)OCC [DHA-OEt, docosahexaenoic acid ethyl ester] | 26.1 | 282.0 | 16.0 | 1732 | 32.6 |  |  |  |  |
|  | CC/C=C\C/C=C\C/C=C\C/C=C\C/C=C\CCCC(=O)O [EPA-OH, all-cis-5,8,11,14,17-eicosapentaenoic acid] | 8.6 | 14.7 | 3.1 | 424 | 20.6 |  |  |  |  |
|  | Docosahexaenoic Acid-L-Lysine Salt [DHA-Lys] | 1.7 | <1.0 | 3.1 | <1.0 | 0.9 |  |  |  |  |
|  | Docosahexaenoic Acid-Sodium Salt [DHA-Na] |  |  |  |  |  | 6.9 mmol/kg and 6.9 ** mmol/kg | grey-coloured appearance | 77.9 A/g and 77.9 ** A/g | 3.4 area-% and 3.4 ** area-% |
|  | Eicosapentaenoic Acid-L-Lysine [EPA-Lys] | 1.3 | <1.0 | 2.1 | <1.0 | 0.6 |  |  |  |  |
|  | Eicosapentaenoic Acid-Sodium Salt [EPA-Na] |  |  |  |  |  | 5.0 mmol/kg and 5.0 ** mmol/kg | grey-coloured appearance | 41.1 A/g and 41.1 ** A/g | 2.4 area-% and 2.4 ** area-% |
